Results published in PubChem BioAssay AID1259407 (Chemical Carcinogenesis Research Information System (CCRIS), 2018).
The source made the active and inactive calls. How the calls were made is not given here.

Test system: CCRIS mutagenicity, Ames/micronucleus/aberration tests
Test: CCRIS mutagenicity studies
[1] = Test System: AMES SALMONELLA TYPHIMURIUM, Strain/Indicator: TA97A, Metabolic Activation: NONE, Method: STANDARD PLATE
[2] = Test System: AMES SALMONELLA TYPHIMURIUM, Strain/Indicator: TA98, Metabolic Activation: NONE, Method: STANDARD PLATE
[3] = Test System: AMES SALMONELLA TYPHIMURIUM, Strain/Indicator: TA98, Metabolic Activation: RAT, LIVER, S-9, PHENOBARBITAL, Method: STANDARD PLATE
[4] = Test System: AMES SALMONELLA TYPHIMURIUM, Strain/Indicator: TA100, Metabolic Activation: NONE, Method: STANDARD PLATE
[5] = Test System: AMES SALMONELLA TYPHIMURIUM, Strain/Indicator: TA100, Metabolic Activation: RAT, LIVER, S-9, PHENOBARBITAL, Method: STANDARD PLATE
[6] = Test System: AMES SALMONELLA TYPHIMURIUM, Strain/Indicator: TA1535, Metabolic Activation: NONE, Method: STANDARD PLATE

Measured: mutagenic call

O=c1c(O)c(-c2ccc(O)c(O)c2)oc2cc(O)cc(O)c12
active: Test System: AMES SALMONELLA TYPHIMURIUM, Strain/Indicator: TA97, Metabolic Activation: NONE, Method: STANDARD PLATE active; positive | [1] active; positive | Test System: AMES SALMONELLA TYPHIMURIUM, Strain/Indicator: TA97A, Metabolic Activation: RAT, LIVER, S9, AROCLOR 1254, Method: STANDARD PLATE active; positive | Test System: AMES SALMONELLA TYPHIMURIUM, Strain/Indicator: TA98, Metabolic Activation: HAMSTER, LIVER, S9, AROCLOR 1254 (30%), Method: PREINCUBATION active; positive | Test System: AMES SALMONELLA TYPHIMURIUM, Strain/Indicator: TA98, Metabolic Activation: NONE, Method: FLUCTUATION (MICROTITER) active; positive | Test System: AMES SALMONELLA TYPHIMURIUM, Strain/Indicator: TA98, Metabolic Activation: NONE, Method: PREINCUBATION active; positive | [2] active; positive | Test System: AMES SALMONELLA TYPHIMURIUM, Strain/Indicator: TA98, Metabolic Activation: RAT, LIVER, CYTOSOL, Method: PREINCUBATION active; positive | Test System: AMES SALMONELLA TYPHIMURIUM, Strain/Indicator: TA98, Metabolic Activation: RAT, LIVER, S9, 5,6-BENZOFLAVONE AND/OR SODIUM PHENOBARBITAL, Method: PREINCUBATION active; positive | Test System: AMES SALMONELLA TYPHIMURIUM, Strain/Indicator: TA98, Metabolic Activation: RAT, LIVER, S9, AROCLOR 1254 (30%), Method: PREINCUBATION active; positive | [3] active; positive | Test System: AMES SALMONELLA TYPHIMURIUM, Strain/Indicator: TA98, Metabolic Activation: S9, GLUCOSE-6-PHOSPHATE AND NADP, Method: STANDARD PLATE active; positive | Test System: AMES SALMONELLA TYPHIMURIUM, Strain/Indicator: TA98, Metabolic Activation: S9, Method: STANDARD PLATE active; positive | Test System: AMES SALMONELLA TYPHIMURIUM, Strain/Indicator: TA98, Metabolic Activation: S-100, GLUCOSE-6-PHOSPHATE AND NADP, Method: STANDARD PLATE active; positive | Test System: AMES SALMONELLA TYPHIMURIUM, Strain/Indicator: TA98, Metabolic Activation: S-100, Method: STANDARD PLATE active; positive | Test System: AMES SALMONELLA TYPHIMURIUM, Strain/Indicator: TA100, Metabolic Activation: HAMSTER, LIVER, S9, AROCLOR 1254 (30%), Method: PREINCUBATION active; positive | Test System: AMES SALMONELLA TYPHIMURIUM, Strain/Indicator: TA100, Metabolic Activation: NONE, Method: PREINCUBATION active; positive | [4] active; positive | Test System: AMES SALMONELLA TYPHIMURIUM, Strain/Indicator: TA100, Metabolic Activation: RAT, LIVER, S9, AROCLOR 1254 (30%), Method: PREINCUBATION active; positive | [5] active; positive | Test System: AMES SALMONELLA TYPHIMURIUM, Strain/Indicator: TA102, Metabolic Activation: RAT, LIVER, S9, AROCLOR 1254, Method: STANDARD PLATE active; positive | Test System: AMES SALMONELLA TYPHIMURIUM, Strain/Indicator: TA1537, Metabolic Activation: NONE, Method: FLUCTUATION (MICROTITER) active; positive | Test System: AMES SALMONELLA TYPHIMURIUM, Strain/Indicator: TA1538, Metabolic Activation: NONE, Method: STANDARD PLATE active; positive | Test System: AMES SALMONELLA TYPHIMURIUM, Strain/Indicator: TA7002, Metabolic Activation: NONE, Method: FLUCTUATION (MICROTITER) active; positive | Test System: AMES SALMONELLA TYPHIMURIUM, Strain/Indicator: TA7004, Metabolic Activation: NONE, Method: FLUCTUATION (MICROTITER) active; positive | Test System: AMES SALMONELLA TYPHIMURIUM, Strain/Indicator: TA7005, Metabolic Activation: NONE, Method: FLUCTUATION (MICROTITER) active; positive | Test System: Ames Salmonella typhimurium, Strain/Indicator: TA98, Metabolic Activation: None, Method: Standard plate active; positive | Test System: Ames Salmonella typhimurium, Strain/Indicator: TA98, Metabolic Activation: Rat, Liver, S9, Aroclor 1254, Method: Standard plate active; positive | Test System: Ames Salmonella typhimurium, Strain/Indicator: TA100, Metabolic Activation: None, Method: Standard plate active; positive | Test System: Ames Salmonella typhimurium, Strain/Indicator: TA100, Metabolic Activation: Rat, Liver, S9, Aroclor 1254, Method: Standard plate active; positive | Test System: Ames Salmonella typhimurium, Strain/Indicator: TA102, Metabolic Activation: Fe ++ (1 uM) with NADPH generating system, Method: Preincubation active; positive | Test System: Ames Salmonella typhimurium, Strain/Indicator: TA102, Metabolic Activation: None, Method: Preincubation active; positive | Test System: Ames Salmonella typhimurium, Strain/Indicator: TA102, Metabolic Activation: Rat, Liver, S9, Aroclor 1254, Method: Preincubation active; positive | Test System: Ames Salmonella typhimurium, Strain/Indicator: TA102, Metabolic Activation: Rat, Liver, S-9, Aroclor 1254 in 0.154 M KCl, Method: Preincubation active; positive | Test System: E. coli, Strain/Indicator: WP2 uvrA, Metabolic Activation: Fe ++ (1 uM) with NADPH generating system, Method: Preincubation active; positive | Test System: E. coli, Strain/Indicator: WP2 uvrA, Metabolic Activation: None, Method: Preincubation active; positive | Test System: E. coli, Strain/Indicator: WP2 uvrA, Metabolic Activation: Rat, Liver, S9, Aroclor 1254, Method: Preincubation active; positive
inactive: End Point: IN VIVO MICRONUCLEUS, Test System: BONE MARROW POLYCHROMATIC ERYTHROCYTES, Species: MOUSE, Strain/Sex: DDY/MALE, Route: IP inactive; negative | End Point: In vivo micronucleus, Test System: Bone marrow polychromatic erythrocytes, Species: Rat, Strain/Sex: Wistar/Male, Route: Oral (gavage) inactive; negative | [6] inactive; negative | Test System: AMES SALMONELLA TYPHIMURIUM, Strain/Indicator: TA7001, Metabolic Activation: NONE, Method: FLUCTUATION (MICROTITER) inactive; negative | Test System: AMES SALMONELLA TYPHIMURIUM, Strain/Indicator: TA7003, Metabolic Activation: NONE, Method: FLUCTUATION (MICROTITER) inactive; negative | Test System: AMES SALMONELLA TYPHIMURIUM, Strain/Indicator: TA7006, Metabolic Activation: NONE, Method: FLUCTUATION (MICROTITER) inactive; negative | Test System: UDS RAT GASTRIC MUCOSAL CELLS, Strain/Indicator: THY INCORP, Metabolic Activation: NONE, Method: LIQUID SCINTILLATION COUNTING inactive; negative | Test System: UDS Rat hepatocytes, Strain/Indicator: Wistar (Male and female), Method: Autoradiography inactive; negative

N=C(N)c1ccc2c(N)c(C(=N)N)[nH]c2c1
inactive: [2] inactive; negative | [3] inactive; negative | [4] inactive; negative | [5] inactive; negative

C(CCC1CO1)CC1CO1 (stereo not given)
active: [1] active; positive | [4] active; positive | Test System: AMES SALMONELLA TYPHIMURIUM, Strain/Indicator: TA102, Metabolic Activation: NONE, Method: STANDARD PLATE active; positive | Test System: AMES SALMONELLA TYPHIMURIUM, Strain/Indicator: TA102, Metabolic Activation: RAT LIVER S-9, AROCLOR 1254, Method: STANDARD PLATE active; positive | [6] active; positive
inactive: Test System: AMES SALMONELLA TYPHIMURIUM, Strain/Indicator: TA1537, Metabolic Activation: NONE, Method: STANDARD PLATE inactive; negative
